Data taken from patent US12514887B2, “Oncolytic tumor viruses and methods of use” (priority 2014, dated 2026).

Columns and labels:
mTOR = biological target: T1, mTOR (Homo sapiens, UniProt P42345+P62942); experiment: p70 S6K phosphorylation immunoblot; type: cell-based; settings: targeting concentrations
T1 construct: endogenous in cells

[1] = system: HS578T subcutaneous xenografts; experiment: HS578T subcutaneous xenografts, AdSyn-CO335 study; settings: 28 days, 8 mg/kg rapamycin alone, no virus infection
Procedure: Oncolytic activity of AdSyn-CO335 was tested in vitro and in vivo. HS578T cells were infected with a serial dilution of AdSyn-CO335. At 24, 48, 72 and 96 hours after infection, fresh rapamycin or AP21967 was added to 50 nM. The metabolic activity was quantified by WST-1 assay, and was normalized to uninfected cells with a matching drug treatment. […] To evaluate AdSyn-CO335 in vivo, HS578T subcutaneous xenografts were established in mice. […]
Two perpendicular tumor diameters (l and w) were measured weekly to follow tumor progression. Tumor volumes were calculated by use of the modified ellipsoid formula where vol=½ (l*w^2) (Euhus et al., J Surg Oncol 31(4):229-2341986; Tomayko et al., Cancer Chemother Pharmacol 24(3):148-154, 1989).
On days 0, 3, and 6, mice were injected intratumorally with 2×10^8 PFU of adenovirus diluted in 50 μl PBS. […] Body weight was monitored for toxicity, and tumor sizes were measured while blinded to treatment groups. […]

Structure (SMILES)	phosphorylation of p70 S6K (mTOR inhibition) (mTOR)	mean tumor volume [1] [mm^3]
CO[C@H]1[C@@H](O)[C@H](C)C[C@H](C)/C=C/C=C/C=C(\C)[C@@H](c2c[nH]c3c(C)cccc23)C[C@@H]2CC[C@@H](C)[C@@](O)(O2)C(=O)C(=O)N2CCCC[C@H]2C(=O)O[C@H]([C@H](C)C[C@@H]2CC[C@@H](O)[C@H](OC)C2)C[C@H](O)[C@H](C)/C=C(\C)[C@H]1O [AP21967]	does not inhibit mTOR at targeting concentrations	–
CO[C@H]1C[C@@H]2CC[C@@H](C)[C@@](O)(O2)C(=O)C(=O)N2CCCC[C@H]2C(=O)O[C@H]([C@H](C)C[C@@H]2CC[C@@H](O)[C@H](OC)C2)CC(=O)[C@H](C)/C=C(\C)[C@@H](O)[C@@H](OC)C(=O)[C@H](C)C[C@H](C)/C=C/C=C/C=C/1C [rapamycin, Rapamycin]	–	229±49
